Experimental data taken from patent US20050282824A1, “Substituted pyrimidines as inhibitors of bacterial type III protein secretion systems” (priority 2004, published 2005).

Tests used:
[1] = tested on: Type III protein secretion of ExoU by P. aeruginosa PA103; assay: Tertiary assay: Type III-dependent secretion of ExoU by P. aeruginosa PA103; type: cell-based; conditions: Pseudomonas aeruginosa, read-out: ExoU IC50(uM)
Description: Tertiary assay: inhibition of Type III protein secretion of effectors from a Pseudomonas aeruginosa system. Type III protein secretion is used by P. aeruginosa to secrete several essential virulence determinants. One effector of the type III protein secretion system of P. aeruginosa PA 103 is the virulence determinants ExoU.
The amount of Type III-dependent secretion of ExoU by P. aeruginosa PA103 can be determined in a cell-based assay by quantification of the 73.9 kDa ExoU protein secreted into the extracellular medium. Such quantitation can be achieved by growing strain PA 103 in a deferrated medium in the presence of nitrilotriacetic acid (an inducer of Type III protein secretion in P. aeruginosa) and either in the presence or absence of putative inhibitors. After a prolonged growth period, the cells are sedimented and the supernatants concentrated by ammonium sulfate precipitation. The proteins in the resuspended pellets are separated by electrophoresis on SDS-polyacrylamide gels. After staining gels with Colloidal Blue™, the 73.9 kDa ExoU band is quantitated by scanning through an imager. The effects of inhibitors on the intensity of the ExoU band may be measured relative to that of untreated controls.

[2] = tested on: SPI1 type III protein secretion of SopE'-'Bla by Salmonella enterica; assay: Primary assay: Type III protein secretion of the chimeric SopE'-'Bla polypeptide by Salmonella enterica; type: cell-based; conditions: read-out: SopE IC50(uM)
Description: Primary assay: Type III protein secretion of the chimeric SopE′-′Bla polypeptide by Salmonella enterica. This procedure is a cell-based assay that measures the type III-dependent secretion by Salmonella enterica of a plasmid-encoded chimeric polypeptide whose synthesis can be regulated, and which is endowed with an enzymatic activity that can be monitored […] by hydrolysis of a substrate that is unable to penetrate into the bacterial cytoplasm within the time constraints of the reaction. Thus, the colorimetric reaction is not influenced by SopE′-′Bla polypeptide in the bacterial cytoplasm. Instead, it effectively measures the amount of polypeptide that has been secreted from the S. enterica cytoplasm to the extracellular medium via type III system protein secretion.
The SopE′-′Bla recombinant polypeptide consists of two functionally distinct domains spliced together. The N-terminus domain is encoded by a polynucleotide region specifying the signal for type III secretion of the SopE polypeptide of S. enterica, an effector of the SPI1 type III protein secretion system. The C-terminus domain of SopE′-′Bla consists of a 263 amino acid peptide sequence that corresponds to the TEM-1 β-lactamase expressed by plasmid pBR322 but without its N-terminal signal sequence. The TEM-1 β-lactamase part of the SopE′-′Bla chimeric polypeptide is used as a reporter enzyme. It is capable of hydrolyzing nitrocefin resulting in a product whose accumulation can be monitored by colorimetric detection. The secretion of the SopE′-′Bla chimeric polypeptide from the cytoplasm to the extracellular medium is dependent on type III protein secretion.
For this procedure, cells grown under conditions known to favor a functional SPI1 secretion system are induced for expression of the SopE′-′Bla protein and grown either in the presence or in the absence of putative inhibitors for determined time. Nitrocefin is then added to the various cultures and its hydrolysis are used for quantitation. An inhibitor of Type III protein secretion is generally a compound that reduces the signal of the enzymatic reaction by decreasing the amount of SopE′-′Bla secreted into the extracellular medium.

SMILES | IC50 [1] | IC50 [2]
Cc1cc(C(=O)N[C@@H](CSCc2ccccc2)C(=O)O)nc(N2CCC(c3ccccc3)CC2)n1 [Compound 2, (R)-3-Benzylsulfanyl-2-{[6-methyl-2-(4-phenylpiperidin-1-yl)pyrimidine-4-carbonyl]amino}propionic acid] | > 100 µM | 34.2 µM
O=C(N[C@H](Cc1ccc(Cl)cc1)C(=O)O)c1cc(N2CCc3ccccc3C2)nc(Cl)n1 [Compound 5, (R)-2-{[2-Chloro-6-(3,4-dihydro-1H-isoquinolin-2-yl)pyrimidine-4-carbonyl]amino}-3-(4-chlorophenyl)propionic acid] | – | 32.7 µM
O=C(N[C@H](Cc1ccc(Cl)cc1)C(=O)O)c1cc(N2CCc3ccccc3C2)nc(-c2ccc(F)cc2)n1 [Compound 9, (R)-3-(4-Chlorophenyl)-2-{[6-(3,4-dihydro-1H-isoquinolin-2-yl)-2-(4-fluoro-phenyl)Pyrimidine-4-carbonyl]amino}propionic acid] | – | 8 µM
O=C(N[C@@H](CSCc1ccccc1)C(=O)O)c1cc(N2CCCCC2)nc(N2CCC(c3ccccc3)CC2)n1 [Compound 29, (R)-3-Benzylsulfanyl-2-{[2-(4-phenylpiperidin-1-yl)-6-piperidin-1-yl-pyrimidine-4-carbonyl]amino}propionic acid] | – | 3.2 µM
O=C(N[C@H](Cc1ccc(Cl)cc1)C(=O)O)c1cc(N2CCCc3ccccc32)nc(-c2ccc(-c3ccccc3)cc2)n1 [Compound 33, (R)-2-{[2-Biphenyl-4-yl-6-(3,4-dihydro-2H-quinolin-1-yl)pyrimidine-4-carbonyl]amino}-3-(4-chlorophenyl)propionic acid] | 24.4 µM | –
O=C(N[C@H](Cc1ccc(Cl)cc1)C(=O)O)c1cc(N2CCCCC2)nc(-c2ccc(-c3ccccc3)cc2)n1 [Compound 34, (R)-2-[(2-Biphenyl-4-yl-6-piperidin-1-yl-pyrimidine-4-carbonyl)amino]-3-(4-chlorophenyl)propionic acid] | 71 µM | –
CN1CCN(c2nc(C(=O)N[C@@H](COCc3ccccc3)C(=O)O)cc(N3CCN(c4nccc(C(F)(F)F)n4)CC3)n2)CC1 [Compound 45, (S)-3-Benzyloxy-2-({2-(4-methyl-piperazin-1-yl)-6-[4-(4-trifluoromethylpyrimidin-2-yl)piperazin-1-yl]pyrimidine-4-carbonyl}amino)propionic acid] | – | 60.7 µM
CC1CCN(c2nc(C(=O)N[C@@H](CSCc3ccccc3)C(=O)O)cc(N3CCN(c4ccccn4)CC3)n2)CC1 [Compound 64, (R)-3-Benzylsulfanyl-2-{[2-(4-methylpiperidin-1-yl)-6-(^4-pyridin-2-yl-piperazin-1-yl)pyrimidine-4-carbonyl]amino}propionic acid] | 18.9 µM | –
O=C(N[C@@H](COCc1ccccc1)C(=O)O)c1cc(N2CCN(c3ccccn3)CC2)nc(N2CCN(c3ccccn3)CC2)n1 [Compound 65, (S)-3-Benzyloxy-2-{[2,6-bis-(4-pyridin-2-yl-piperazin-1-yl)pyrimidine-4-carbonyl]-amino}propionic acid] | 38.4 µM | –
O=C(N[C@@H](CSCc1ccccc1)C(=O)O)c1cc(N2CCN(c3ccccn3)CC2)nc(N2CCN(c3ccccn3)CC2)n1 [Compound 66, (R)-3-Benzylsulfanyl-2-{[2,6-bis-(4-pyridin-2-yl-piperazin-1-yl)pyrimidine-4-carbonyl]amino}propionic acid] | 52.8 µM | –
O=C(NC(Cc1ccc(Cl)cc1)C(=O)O)c1cc(N2CCN(c3ccccn3)CC2)nc(N2CCN(c3ccccn3)CC2)n1 (stereo not drawn) [Compound 67, 2-{[2,6-Bis-(4-pyridin-2-yl-piperazin-1-yl)pyrimidine-4-carbonyl]amino}-3-(4-chlorophenyl)propionic acid] | 65.6 µM | –
O=C(NC(Cc1ccc(Cl)cc1)C(=O)O)c1cc(N2CCN(c3ccccn3)CC2)nc(-c2ccc([N+](=O)[O-])cc2)n1 (stereo not drawn) [Compound 68, 3-(4-Chlorophenyl)-2-{[2-(4-nitrophenyl)-6-(4-pyridin-2-yl-piperazin-1-yl)-pyrimidine-4-carbonyl]amino}propionic acid] | 21.1 µM | –
CN(C)c1ccc(-c2nc(C(=O)N[C@@H](COCc3ccccc3)C(=O)O)cc(N3CCN(c4ccccn4)CC3)n2)cc1 [Compound 69, (S)-3-Benzyloxy-2-{[2-(4-dimethylaminophenyl)-6-(4-pyridin-2-yl-piperazin-1-yl)-pyrimidine-4-carbonyl]amino}propionic acid] | > 100 µM | –
CN(C)c1ccc(-c2nc(C(=O)NC(Cc3ccc(Cl)cc3)C(=O)O)cc(N3CCN(c4ccccn4)CC3)n2)cc1 (stereo not drawn) [Compound 70, 3-(4-Chlorophenyl)-2-{[2-(4-dimethylaminophenyl)-6-(4-pyridin-2-yl-piperazin-1-yl)pyrimidine-4-carbonyl]amino}propionic acid] | 29.8 µM | –
O=C(N[C@@H](COCc1ccccc1)C(=O)O)c1cc(N2CCN(c3ccccn3)CC2)nc(-c2cccs2)n1 [Compound 71, (S)-3-Benzyloxy-2-{[6-(4-pyridin-2-yl-piperazin-1-yl)-2-thiophen-2-yl-pyrimidine-4-carbonyl]amino}propionic acid] | > 50 µM | –
O=C(N[C@@H](CSCc1ccccc1)C(=O)O)c1cc(N2CCN(c3ccccn3)CC2)nc(-c2ccoc2)n1 [Compound 72, (R)-3-Benzylsulfanyl-2-{[2-furan-3-yl-6-(4-pyridin-2-yl-piperazin-1-yl)pyrimidine-4-carbonyl]amino}propionic acid] | > 50 µM | –
O=C(N[C@@H](COCc1ccccc1)C(=O)O)c1cc(N2CCN(c3ccccn3)CC2)nc(-c2ccoc2)n1 [Compound 73, (S)-3-Benzyloxy-2-{[2-furan-3-yl-6-(4-pyridin-2-yl-piperazin-1-yl)pyrimidine-4-carbonyl]amino}propionic acid] | > 50 µM | –
CC1CCN(c2cc(C(=O)N[C@@H](CSCc3ccccc3)C(=O)O)nc(N3CCN(c4ccccn4)CC3)n2)CC1 [Compound 74, (R)-3-Benzylsulfanyl-2-{[6-(4-methylpiperidin-1-yl)-2-(4-pyridin-2-yl-piperazin-1-yl)pyrimidine-4-carbonyl]amino}propionic acid] | > 50 µM | –
CN1CCN(c2cc(C(=O)N[C@@H](CSCc3ccccc3)C(=O)O)nc(N3CCN(c4ccccn4)CC3)n2)CC1 [Compound 75, (R)-3-Benzylsulfanyl-2-{[6-(4-methyl-piperazin-1-yl)-2-(4-pyridin-2-yl-piperazin-1-yl)pyrimidine-4-carbonyl]amino}propionic acid] | > 100 µM | –
CN1CCN(c2cc(C(=O)N[C@@H](COCc3ccccc3)C(=O)O)nc(N3CCN(c4ccccn4)CC3)n2)CC1 [Compound 76, (S)-3-Benzyloxy-2-{[6-(4-methyl-piperazin-1-yl)-2-(4-pyridin-2-yl-piperazin-1-yl)-pyrimidine-4-carbonyl]amino}propionic acid] | > 50 µM | –
O=C(N[C@@H](CSCc1ccccc1)C(=O)O)c1cc(N2CCC(Cc3ccccc3)CC2)nc(-c2ccc(C(F)(F)F)cc2)n1 [Compound 77, (R)-2-{[6-(4-Benzylpiperidin-1-yl)-2-(4-trifluoromethylphenyl)pyrimidine-4-carbonyl]amino}3-benzylsulfanylpropionic acid] | 92.8 µM | –
O=C(N[C@@H](CSCc1ccccc1)C(=O)O)c1cc(N2CCC(Cc3ccccc3)CC2)nc(-c2ccc(Cl)cc2)n1 [Compound 78, (R)-2-{[6-(4-Benzylpiperidin-1-yl)-2-(4-chlorophenyl)pyrimidine-4-carbonyl]-amino}-3-benzylsulfanylpropionic acid] | 42.4 µM | –
O=C(NC(Cc1ccc(Cl)cc1)C(=O)O)c1cc(N2CCC(Cc3ccccc3)CC2)nc(-c2ccc(Cl)cc2)n1 (stereo not drawn) [Compound 79, 2-{[6-(4-Benzylpiperidin-1-yl)-2-(4-chlorophenyl)pyrimidine-4-carbonyl]amino}-3-(4-chlorophenyl)propionic acid] | 64 µM | –
